Structures can show the parent of a compound that is named as a salt.

Data on nine molecules can be found in patent US20110009394A1, “TRICYCLIC NITROGEN COMPOUNDS AND THEIR USE AS ANTIBACTERIAL AGENTS” (Glaxo Group Limited, priority 2008, published 2011).

The first test has as its system Mycobacterium tuberculosis H37Rv. Description: Mycobacterium tuberculosis H37Rv Inhibition Assay. As to conditions: ATCC 25618 / H37Rv, H37Rv strain (ATCC25618), Middlebrook 7H9+ADC, resazurin fluorescence, read-out: MIC value. Format: cell-based.
As for `Cl.O=c1cnc2ccc(=O)n3c2n1CC[C@H]3CN1CCC(NCc2ccc3c(c2)OCCO3)CC1` [Example 17B, (6S)-6-({4-[(2,3-Dihydro-1,4-benzodioxin-6-ylmethyl)amino]-1-piperidinyl}methyl)-5,6-dihydro-3H,4H,7H-1,3a,6a-triazaphenalene-3,7-dione hydrochloride], the MIC is less than 4 µg/mL.

Staying with this test, now noted: ATCC 25618 / H37Rv, read-out: MIC value.
For `O=c1cnc2ccc(=O)n3c2n1CCC3CN1CCC(NCc2cc3c(cn2)OCCO3)CC1` (stereo not drawn) [Example 1, 6-([4-[(2,3-Dihydro[1,4]dioxino[2,3-c]pyridin-7-ylmethyl)amino]-1-piperidinyl]methyl)-5,6-dihydro-3H,4H,7H-1,3a,6a-triazaphenalene-3,7-dione dihydrochloride], the MIC was greater than 4 µg/mL.
Still for that read-out and setting: the figure for `O=c1cnc2ccc(=O)n3c2n1CCC3CN1CCC(NCc2cc3c(cn2)OCS3)CC1` (stereo not drawn) [Example 2, 6-({4-[([1,3]Oxathiolo[5,4-c]pyridin-6-ylmethyl)amino]-1-piperidinyl}methyl)-5,6-dihydro-3H,4H,7H-1,3a,6a-triazaphenalene-3,7-dione dihydrochloride] is greater than 4 µg/mL.
Still for that read-out and setting: next, `O=C1CSc2ccc(CNC3CCN(CC4CCn5c(=O)cnc6ccc(=O)n4c65)CC3)nc2N1` (stereo not drawn) [Example 4, 6-[(4-{[(3-oxo-3,4-dihydro-2H-pyrido[3,2-b][1,4]thiazin-6-yl)methyl]amino}-1-piperidinyl)methyl]-5,6-dihydro-3H,4H,7H-1,3a,6a-triazaphenalene-3,7-dione dihydrochloride]: less than 400 µg/mL; `O=c1ccc2ncc(=O)n3c2n1CCC3CN1CCC(NCc2cc3c(cn2)OCS3)CC1` (stereo not drawn) [Example 8, 4-({4-[([1,3]Oxathiolo[5,4-c]pyridin-6-ylmethyl)amino]-1-piperidinyl}methyl)-5,6-dihydro-3H,4H,7H-1,3a,6a-triazaphenalene-3,7-dione dihydrochloride]: greater than 4 µg/mL.
For the molecule `O=c1ccc2ncc(=O)n3c2n1CC[C@H]3CN1CCC(NCc2cc3c(cn2)OCCS3)CC1` [Example 9, (4S)-4-({4-[(2,3-Dihydro[1,4]oxathiino[2,3-c]pyridin-7-ylmethyl)amino]-1-piperidinyl}methyl)-5,6-dihydro-3H,4H,7H-1,3a,6a-triazaphenalene-3,7-dione dihydrochloride], the MIC is greater than 4 µg/mL.
`O=c1ccc2ccc(=O)n3c2n1CCC3CN1CCC(NCc2cc3c(cn2)OCS3)CC1` (stereo not drawn) [Example 11, 5-({4-[([1,3]Oxathiolo[5,4-c]pyridin-6-ylmethyl)amino]-1-piperidinyl}methyl)-6,7-dihydro-3H,5H,9H-pyrimido[1,2,3-ij]-1,8-naphthyridine-3,9-dione dihydrochloride]: the MIC was less than 4 µg/mL.
For the molecule `N#Cc1cc(CNC2CCN(C[C@@H]3CCn4c(=O)cnc5ccc(=O)n3c54)CC2)cc2c1OCCO2` [Example 15, 7-{[(1-{[(6S)-3,7-Dioxo-5,6-dihydro-3H,4H,7H-1,3a,6a-triazaphenalen-6-yl]methyl}-4-piperidinyl)amino]methyl}-2,3-dihydro-1,4-benzodioxin-5-carbonitrile dihydrochloride], the MIC is less than 4 µg/mL.
On the same count and under the same terms, next, `O=c1cnc2ccc(=O)n3c2n1CC[C@H]3CN1CCC(NCc2cc3c(cc2F)OCCO3)CC1` [Example 16, (6S)-6-[(4-{[(7-Fluoro-2,3-dihydro-1,4-benzodioxin-6-yl)methyl]amino}-1-piperidinyl)methyl]-5,6-dihydro-3H,4H,7H-1,3a,6a-triazaphenalene-3,7-dione dihydrochloride]: greater than 4 µg/mL.
